How the values were obtained:
[1] = tested on: HCV genotype 1b (HCV-1b) replicon cells; test: HCV genotype 1b replicon luciferase assay (EC50); assay type: cell-based, hepatitis C virus genotype 1b (Con1 clone); conditions: 3 days, luciferase (Bright-Glo)
In short: (§1)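 Replicon cells, 8000/well, 3 d, 37 °C; 6-pt 5-fold dilution from 100, 10 or 1 nM, 0.5% DMSO, duplicates; Bright-Glo luminescence → EC50 (nonlinear fit). 1a = H77 K1691R/K2040R/S2204I; 1b = Con1 E1202G/T1280I/K1846T.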

[2] = Cell Titer-fluor cell activity assay in HCV-1b replicon cells (CC50); assay type: cell-based
In short: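 CC50 derived by nonlinear fitting of inhibition % from Cell Titer-fluor signal (405/515 nm, 30 min). Cells: genotype 1b Con1 replicon carrying E1202G, T1280I, K1846T, seeded 8000/well with compound for 3 days, 37 °C, 0.5% DMSO; 6 points, 5-fold dilution, top 100, 10 or 1 nM, duplicates.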

[3] = tested on: HCV genotype 1a (HCV-1a) replicon cells; test: HCV genotype 1a replicon luciferase assay (EC50); assay type: cell-based, hepatitis C virus genotype 1a (H77 clone); conditions: 3 days, luciferase (Bright-Glo)
In short: as §1

| Structure (SMILES) | EC50 ([1]; Hepatitis C virus, 72 h) | CC50 at 3 days [2] | EC50 ([3]; Hepatitis C virus, 72 h) | EC50 [1] | EC50 [3] |
| --- | --- | --- | --- | --- | --- |
| COC(=O)N[C@H](C(=O)N1CCC[C@H]1c1ncc(-c2ccc(-c3ccc(-c4cnc(C5C6CCC(C6)[C@H]5C(=O)NCc5cnccn5)[nH]4)cc3)cc2)[nH]1)[C@@H](C)OC (stereo partly drawn) [AA_268_B] | 0.001 to 0.1 nM | > 1 nM | 1 to 10 nM |  |  |
| COC(=O)N[C@H](C(=O)N1CCC[C@H]1c1ncc(-c2ccc(-c3ccc(-c4cnc([C@@H]5[C@H]6CC[C@H](C6)[C@H]5C(=O)N[C@H](C)c5cnccn5)[nH]4)cc3)cc2)[nH]1)C(C)C [AA_270_ENDOA2_B] | 0.001 to 0.1 nM | > 1 nM | 1 to 10 nM |  |  |
| COC(=O)NC(C(=O)N1CCC[C@H]1c1nc2ccc(-c3ccc(-c4[nH]c([C@@H]5CCCN5C(=O)[C@@H](NC(=O)OC)C(C)OC)c5c4CCC5)cc3)cc2[nH]1)[C@@H](C)OC (stereo partly drawn) [AG_092] | 0.001 to 0.1 nM | > 1 nM | 10 to 100 nM |  |  |
| COC(=O)N[C@H](C(=O)N1CCC[C@H]1c1ncc(-c2ccc(-c3ccc(-c4cnc([C@@H]5[C@H]6CC[C@H](C6)[C@H]5C(=O)NN(C(C)=O)C(C)C)[nH]4)cc3)cc2)[nH]1)C(C)C [AA_300_ENDOA2] | 0.101 to 1 nM | > 1 nM | 10 to 100 nM |  |  |
| COC(=O)N[C@H](C(=O)N1CCC[C@H]1c1ccc(-c2ccc(-c3ccc(-c4cnc([C@@H]5CCCN5C(=O)[C@@H](NC(=O)OC)[C@@H](C)OC)[nH]4)cc3)cc2)[nH]1)[C@@H](C)OC [AG_118_B] | 0.001 to 0.1 nM | > 1 nM | 1 to 10 nM |  |  |
| COC(=O)N[C@H](C(=O)N1CCCC1c1ccc(-c2ccc(-c3ccc(-c4cnc([C@@H]5CCCN5C(=O)[C@@H](NC(=O)OC)[C@@H](C)OC)[nH]4)cc3)cc2)[nH]1)[C@@H](C)OC (single isomer, unassigned) [AG_072_A] |  | > 1 nM |  | 0.001 to 0.1 nM | 0.001 to 0.1 nM |
| CCOC(=O)CNC(=O)[C@@H](NC(=O)[C@@H]1[C@@H]2CC[C@@H](C2)[C@H]1c1ncc(-c2ccc(-c3ccc(-c4cnc([C@@H]5CCCN5C(=O)[C@@H](NC(=O)OC)C(C)C)[nH]4)cc3)cc2)[nH]1)C(C)C [AA_301_ENDOA2] | 0.101 to 1 nM | > 1 nM | 10 to 100 nM |  |  |
| COC(=O)N[C@H](C(=O)N1CCC[C@H]1c1ncc(-c2ccc(-c3ccc(-c4cnc([C@@H]5C6CCC(C6)[C@H]5C(=O)NCc5cccnc5C5CC5)[nH]4)cc3)cc2)[nH]1)C(C)C (stereo partly drawn) [AA_234_B] | 0.001 to 0.1 nM | > 1 nM | 10 to 100 nM |  |  |
| COC(=O)N[C@H](C(=O)N1CCCC1c1ncc(-c2ccc(-c3ccc(-c4cnc([C@@H]5C6CCC(C6)C5C(=O)NCc5cccnc5)[nH]4)cc3)c(F)c2)[nH]1)[C@@H](C)OC (stereo partly drawn) [AA_280_A] | 0.001 to 0.1 nM | > 1 nM | 1 to 10 nM |  |  |
| COC(=O)N[C@H](C(=O)N1CCCC1c1ncc(-c2ccc(-c3ccc(-c4[nH]c([C@@H]5CCCN5C(=O)[C@@H](NC(=O)OC)C(C)C)c5c4CCC5)cc3)cc2)[nH]1)C(C)C (stereo partly drawn) [AG_014_A] | 0.001 to 0.1 nM | > 10 nM | 1 to 10 nM |  |  |
| COC(=O)N[C@H](C(=O)N1CCC[C@H]1c1ncc(-c2ccc(-c3ccc(-c4cnc([C@@H]5CCCC[C@H]5C(=O)NCc5cccnc5)[nH]4)cc3)cc2)[nH]1)C(C)C [AA_150_B] | 0.001 to 0.1 nM | > 10 nM | 0.101 to 1 nM |  |  |
| COC(=O)N[C@H](C(=O)N1CCC[C@H]1c1ncc(-c2ccc(-c3ccc(-c4cnc([C@@H]5C6CCC(C6)[C@H]5C(=O)NCc5ccco5)[nH]4)cc3)cc2)[nH]1)C(C)C (stereo partly drawn) [AA_198_B] | 0.001 to 0.1 nM | > 1 nM | 10 to 100 nM |  |  |
| COC(=O)N[C@H](C(=O)N1CCC[C@H]1c1ncc(-c2ccc(-c3ccc(-c4cnc([C@H]5C6CCC(C6)[C@@H]5C(=O)NCc5ccc(C(C)C)nc5)[nH]4)cc3)cc2)[nH]1)C(C)C (stereo partly drawn) [AA_236_A] | 0.001 to 0.1 nM | > 1 nM | 10 to 100 nM |  |  |
| COC(=O)N[C@H](C(=O)N1CCC[C@H]1c1ncc(-c2ccc(-c3ccc(-c4cnc([C@H]5C6CCC(C6)[C@@H]5C(=O)NC(C)c5cccnc5)[nH]4)cc3)cc2)[nH]1)C(C)C (single isomer, unassigned) [AA_204_A] | 0.001 to 0.1 nM | > 1 nM |  |  | 0.101 to 1 nM |
| COC(=O)N[C@H](C(=O)N1CCC[C@H]1c1ncc(-c2ccc(-c3ccc(-c4[nH]c([C@@H]5CCCN5C(=O)[C@@H](NC(=O)OC)[C@@H](C)OC)c5c4COC5)cc3)cc2)[nH]1)C(C)C [AG_079_A] | 0.001 to 0.1 nM | > 5 nM | 0.001 to 0.1 nM |  |  |
| COC(=O)N[C@H](C(=O)N1CCC[C@H]1c1ncc(-c2ccc(-c3ccc(-c4cnc(C5CCCC[C@@H]5C(=O)N(NC(=O)OC)C(C)C)[nH]4)cc3C(F)(F)F)cc2)[nH]1)C(C)C (stereo partly drawn) [AA_127] | 0.101 to 1 nM | > 10 nM | 10 to 100 nM |  |  |
| COC(=O)N[C@H](C(=O)N1CCC[C@H]1c1ncc(-c2ccc(-c3ccc(-c4cnc([C@@H]5C6CCC(C6)[C@H]5C(=O)NCCO)[nH]4)cc3)cc2)[nH]1)C(C)C (stereo partly drawn) [AA_193] | 0.001 to 0.1 nM | > 1 nM | 1 to 10 nM |  |  |
| COC(=O)N[C@H](C(=O)N1CCC[C@H]1c1ncc(-c2ccc(-c3ccc(-c4cc(Cl)c([C@@H]5CCCN5C(=O)[C@@H](NC(=O)OC)[C@@H](C)OC)[nH]4)cc3)cc2)[nH]1)[C@@H](C)OC [AG_094] | 0.001 to 0.1 nM | > 1 nM | 0.101 to 1 nM |  |  |
| COC(=O)N[C@H](C(=O)N1CCC[C@H]1c1ncc(-c2ccc(-c3ccc(-c4cnc([C@H]5CCCC[C@@H]5C(=O)NCc5ccc(Cl)nc5)[nH]4)cc3)cc2)[nH]1)C(C)C [AA_185] | 0.101 to 1 nM | > 5 nM | 10 to 100 nM |  |  |
| COC(=O)N[C@H](C(=O)N1CCC[C@H]1c1ccc(-c2ccc(-c3ccc(-c4cnc([C@@H]5CC6(CCCC6)CN5C(=O)[C@@H](NC(=O)OC)[C@@H](C)OC)[nH]4)cc3)cc2)[nH]1)[C@@H](C)OC [AG_110] | 0.001 to 0.1 nM | > 1 nM | 0.101 to 1 nM |  |  |
| COC(=O)N[C@H](C(=O)N1CCC[C@H]1c1ncc(-c2ccc(-c3ccc(-c4cnc(C5C6CCC(C6)[C@@H]5C(=O)NCc5ccc(C(C)C)nc5)[nH]4)cc3)cc2)[nH]1)[C@@H](C)OC (stereo partly drawn) [AA_265_A] | 0.101 to 1 nM | > 1 nM | 10 to 100 nM |  |  |
| COC(=O)N[C@H](C(=O)N1CCC[C@H]1c1ncc(-c2ccc(-c3ccc(-c4cnc([C@H]5C6CCC(C6)[C@@H]5C(=O)NC(c5cccnc5)C(C)C)[nH]4)cc3)cc2)[nH]1)C(C)C (single isomer, unassigned) [AA_233_A] |  | > 1 nM |  | 0.001 to 0.1 nM | 0.101 to 1 nM |
| COC(=O)N[C@H](C(=O)N1CCC[C@H]1c1ncc(-c2ccc(-c3ccc(-c4[nH]c([C@@H]5CCCN5C(=O)[C@@H](NC(=O)OC)C(C)C)c5c4OCC5)cc3)cc2)[nH]1)C(C)C [AG_122_A] |  | > 1 nM |  | 0.001 to 0.1 nM | 1 to 10 nM |
| COC(=O)N[C@H](C(=O)N1CCC[C@H]1c1[nH]c(-c2ccc(-c3ccc(-c4[nH]c([C@@H]5CCCN5C(=O)[C@@H](NC(=O)OC)C(C)C)c5c4CCC5)cc3)cc2)c2c1CCC2)C(C)C [AG_026_A] | 0.101 to 1 nM | > 10 nM | 10 to 100 nM |  |  |
| COC(=O)N[C@H](C(=O)N1CCC[C@H]1c1ncc(-c2ccc(-c3ccc(-c4cnc(C5C6CCC(C6)[C@@H]5C(=O)Nc5ccccc5)[nH]4)cc3)cc2)[nH]1)[C@@H](C)OC (stereo partly drawn) [AA_246_A] | 0.001 to 0.1 nM | > 1 nM | 10 to 100 nM |  |  |
| COC(=O)N[C@H](C(=O)N1CCC[C@H]1c1ncc(-c2ccc(-c3ccc(-c4cnc([C@H]5C6CCC(C6)[C@@H]5C(=O)NNc5nccnc5Cl)[nH]4)cc3)cc2)[nH]1)C(C)C (stereo partly drawn) [AA_244_A] | 0.101 to 1 nM | > 1 nM | 10 to 100 nM |  |  |
| COC(=O)N[C@H](C(=O)N1CCC[C@H]1c1ncc(-c2ccc(-c3ccc(-c4cnc(C5C6CCC(C6)[C@H]5C(=O)NCc5cccnc5O)[nH]4)cc3)cc2)[nH]1)[C@@H](C)OC (stereo partly drawn) [AA_263_C] | 0.101 to 1 nM | > 1 nM | 10 to 100 nM |  |  |
| COC(=O)N[C@H](C(=O)N1CCC[C@H]1c1ccc(-c2ccc(-c3ccc(-c4cnc([C@@H]5CC6(CC6)CN5C(=O)[C@@H](NC(=O)OC)[C@@H](C)OC)[nH]4)cc3)cc2)[nH]1)[C@@H](C)OC [AG_115] | 0.001 to 0.1 nM | > 1 nM | 0.101 to 1 nM |  |  |

From patent publication US10160771B2, “Hepatitis C virus inhibitors and uses thereof in preparation of drugs” (priority 2014, dated 2018)
